# From ChEMBL document CHEMBL1201862, “PubChem BioAssay data set” (2004)
# Active and inactive are the calls of the source.
# Tests used:
# Paired box protein Pax-8 = Paired box protein Pax-8 (Homo sapiens, UniProt Q06710); test: PAX8 transcriptional activity inhibition in RMG-I – RMG-I cells, luciferase, cherry-pick, dose response (AID 687027); type: functional, cell-based;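 note: luciferase reporter driven by Pax8 target thyroperoxidase promoter measured by SteadyGlo luminescence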
# Vero [1] = test: cells; type: functional, cell-based; settings: Chlorocebus sabaeus
# Vero [2] = test: cells; type: functional; settings: Chlorocebus sabaeus
# [3] = blockers of CRF-binding protein–CRF-R2 complex – cell-based, uHTS hits, 384-well, dose response (AID 651639); type: functional, Homo sapiens; settings: read-out: IC50_Mean
# [4] = molecular target: T1, Corticotropin-releasing factor receptor 2/Corticotropin-releasing factor-binding protein (Homo sapiens, UniProt P24387+Q13324); test: Dose Response confirmation of uHTS hits for small molecule antagonists of the CRF-binding protein and CRF-R2 receptor complex.; type: functional; settings: read-out: IC50_Mean
# T1 sequence (Q13324 whole entry): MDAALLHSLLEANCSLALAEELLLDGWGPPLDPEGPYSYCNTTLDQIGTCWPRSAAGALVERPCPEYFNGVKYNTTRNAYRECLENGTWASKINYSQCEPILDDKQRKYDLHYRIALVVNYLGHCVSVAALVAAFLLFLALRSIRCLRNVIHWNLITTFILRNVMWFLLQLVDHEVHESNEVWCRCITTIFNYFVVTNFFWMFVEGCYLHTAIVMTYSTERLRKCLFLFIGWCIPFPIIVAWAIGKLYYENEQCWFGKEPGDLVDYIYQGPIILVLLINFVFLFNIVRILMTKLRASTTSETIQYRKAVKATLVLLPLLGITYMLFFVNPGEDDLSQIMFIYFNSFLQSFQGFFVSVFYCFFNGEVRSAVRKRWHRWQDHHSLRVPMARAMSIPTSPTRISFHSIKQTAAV
# T1 sequence (P24387 whole entry): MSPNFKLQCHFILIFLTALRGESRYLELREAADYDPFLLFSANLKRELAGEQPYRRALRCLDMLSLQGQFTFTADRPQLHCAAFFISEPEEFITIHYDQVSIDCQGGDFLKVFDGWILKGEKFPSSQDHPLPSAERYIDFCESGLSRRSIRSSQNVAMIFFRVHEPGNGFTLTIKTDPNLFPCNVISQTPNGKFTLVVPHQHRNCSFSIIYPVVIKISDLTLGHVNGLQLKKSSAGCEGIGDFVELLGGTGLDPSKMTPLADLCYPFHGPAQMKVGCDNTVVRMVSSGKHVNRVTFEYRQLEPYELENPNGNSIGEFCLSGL
# [5] = molecular target: T1, Corticotropin-releasing factor receptor 2/Corticotropin-releasing factor-binding protein; test: activators of CRF receptor 2 with binding protein – uHTS hits, confirmation (AID 602473); type: functional; settings: read-out: EC50_Mean
# [6] = P. falciparum Dd2 growth inhibitors, dose response, SYBR Green, cherry-picked samples (AID 1159567); type: functional, cell-based
# [7] = toxicity to human hepatoma HepG2 cells – cell-based, cherry-picked samples, cytotoxicity control, dose response (AID 1159577); type: functional
# [8] = NIH-3T3 fibroblast cytotoxicity, dose response, cytotoxicity control, cell-based, fluorescence, Alamar Blue, secondary assay (AID 2327); type: functional;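 note: NIH-3T3 mouse fibroblasts cultured with fluconazole at 8 µg/mL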
# HEK293 = test: EBV LMP1 TES2 canonical NF-kB signalling blockers – cell-based, HEK293, luciferase, cherry-pick, dose response (AID 588343); type: functional; settings: Homo sapiens
# [9] = fluconazole-exposed Candida albicans growth modulators – fluorescence, retest, confirmation (AID 2467); type: functional, cell-based
# [10] = reduction of Shn3 3'UTR-driven luciferase in osteoblasts – cell-based, Clone20 osteoblasts, firefly luciferase, cherry-picked, dose response (AID 624132); type: functional;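 note: firefly luciferase luminescence from reporter carrying the Shn3 3'UTR in osteoblasts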
# [11] = non-specific 3'UTR reporter inhibition in Clone20-Shn3RL – cell-based, Renilla luciferase, cherry-picked, counter-screen for Shn3 inhibitor project, dose response (AID 624133); type: functional
# [12] = loss of viability in HepG2 cells – cell-based, CellTiter-Glo, cherry-picked, cytotoxicity control for Shn3 inhibitor project, dose response (AID 624134); type: functional
# [13] = Trypanosoma cruzi growth suppression in host cells – NIH3T3 host cells, beta-gal luminescence, confirmation (AID 2044); type: functional, cell-based;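 note: intracellular parasites grown in NIH/3T3 mouse fibroblasts as host cells; luminescent beta-galactosidase reporter signal from transgenic T. cruzi replicating inside host cells; inhibitors lower the luminescence signal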
# [14] = NIH3T3 cell viability loss – ATP luminescence, mouse fibroblasts, counter-screen, dose response (AID 2010); type: functional, cell-based;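 note: cells exposed to compound for about 90 hours before reading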
# Genome polyprotein = Genome polyprotein (dengue virus type 2, UniProt P29990); test: flavivirus cap methylation enzyme inhibition – biochemical, confirmation dose response, primary screen (AID 588689); type: functional
# Chain of Genome polyprotein (P29990 2492-3391 limits assumed): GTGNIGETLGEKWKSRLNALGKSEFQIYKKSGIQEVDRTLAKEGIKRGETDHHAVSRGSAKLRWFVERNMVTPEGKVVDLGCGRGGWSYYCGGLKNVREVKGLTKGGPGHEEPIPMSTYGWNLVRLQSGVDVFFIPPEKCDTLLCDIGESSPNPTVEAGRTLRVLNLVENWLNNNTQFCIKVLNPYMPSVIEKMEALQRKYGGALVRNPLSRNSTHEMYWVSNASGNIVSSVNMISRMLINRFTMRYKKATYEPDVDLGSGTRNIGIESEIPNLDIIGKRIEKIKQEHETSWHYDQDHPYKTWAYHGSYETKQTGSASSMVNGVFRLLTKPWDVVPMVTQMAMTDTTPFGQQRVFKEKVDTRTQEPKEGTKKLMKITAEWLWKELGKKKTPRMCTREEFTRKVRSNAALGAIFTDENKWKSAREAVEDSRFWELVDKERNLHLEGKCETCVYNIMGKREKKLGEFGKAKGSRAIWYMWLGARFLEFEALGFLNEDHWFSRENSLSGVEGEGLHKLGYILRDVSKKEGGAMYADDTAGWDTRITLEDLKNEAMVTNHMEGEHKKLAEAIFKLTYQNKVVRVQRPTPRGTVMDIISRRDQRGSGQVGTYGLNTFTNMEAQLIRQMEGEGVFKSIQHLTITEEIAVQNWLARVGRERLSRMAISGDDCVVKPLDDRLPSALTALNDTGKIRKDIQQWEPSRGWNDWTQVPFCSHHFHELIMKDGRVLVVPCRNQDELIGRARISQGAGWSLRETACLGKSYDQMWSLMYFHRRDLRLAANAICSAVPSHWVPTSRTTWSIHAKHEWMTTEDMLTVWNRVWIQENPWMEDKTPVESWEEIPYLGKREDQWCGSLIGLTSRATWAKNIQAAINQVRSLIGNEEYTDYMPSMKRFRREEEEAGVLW
# [15] = molecular target: T2, High affinity choline transporter 1 (Homo sapiens, UniProt Q9GZV3); test: human choline transporter blockers, potency – cell-based, 5-point CRC, membrane potential dye, dose response (AID 504840); type: functional
# T2 sequence (Q9GZV3 whole entry): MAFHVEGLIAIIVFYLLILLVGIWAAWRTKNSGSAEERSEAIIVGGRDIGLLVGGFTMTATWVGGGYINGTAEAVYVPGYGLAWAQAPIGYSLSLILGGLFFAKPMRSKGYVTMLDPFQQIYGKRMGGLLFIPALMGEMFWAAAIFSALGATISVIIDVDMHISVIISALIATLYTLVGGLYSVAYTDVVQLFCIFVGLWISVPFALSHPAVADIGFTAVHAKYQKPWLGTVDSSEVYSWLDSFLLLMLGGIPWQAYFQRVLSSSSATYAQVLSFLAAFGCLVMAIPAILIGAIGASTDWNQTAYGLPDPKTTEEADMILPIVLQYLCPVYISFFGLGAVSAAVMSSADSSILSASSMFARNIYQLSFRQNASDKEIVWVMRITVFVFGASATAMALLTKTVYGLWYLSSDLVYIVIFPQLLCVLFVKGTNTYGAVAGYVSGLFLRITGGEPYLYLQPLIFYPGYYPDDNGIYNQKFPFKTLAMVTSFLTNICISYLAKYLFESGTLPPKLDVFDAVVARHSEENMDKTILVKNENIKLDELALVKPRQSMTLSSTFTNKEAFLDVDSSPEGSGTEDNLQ
# [16] = growth inhibition of yeast DHODH-expressing 3D7 parasites – SYBR Green, dry powder samples, dose response (AID 1159570); type: functional, cell-based;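 note: parasite growth measured after 72 hours of compound exposure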
# [17] = Dd2 malaria parasite growth inhibition potency – SYBR Green, dry powder samples, dose response (AID 1159566); type: functional, cell-based;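 note: potency for growth inhibition with lower SYBR green DNA signal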
# [18] = growth inhibition of PfATP4-mutant resistant parasites – NITD609-resistant line, SYBR Green, dry powder, dose response (AID 1159571); type: functional, cell-based;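 note: parasites synchronized at ring stage by sorbitol before testing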
# Chain of Paired box protein Pax-8 (Q06710 whole entry): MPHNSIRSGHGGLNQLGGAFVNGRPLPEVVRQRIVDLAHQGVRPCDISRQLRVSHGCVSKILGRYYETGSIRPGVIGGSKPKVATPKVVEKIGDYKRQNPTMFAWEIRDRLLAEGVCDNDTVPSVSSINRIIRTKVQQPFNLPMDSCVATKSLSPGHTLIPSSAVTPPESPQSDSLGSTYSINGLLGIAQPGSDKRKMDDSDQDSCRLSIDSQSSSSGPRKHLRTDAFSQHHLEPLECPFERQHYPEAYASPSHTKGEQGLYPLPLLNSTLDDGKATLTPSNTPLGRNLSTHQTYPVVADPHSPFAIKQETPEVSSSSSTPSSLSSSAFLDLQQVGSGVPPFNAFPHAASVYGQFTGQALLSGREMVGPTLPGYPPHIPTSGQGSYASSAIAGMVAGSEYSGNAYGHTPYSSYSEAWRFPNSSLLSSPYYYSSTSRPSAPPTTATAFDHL
structure (smiles),measurement,setting,value
CC(=O)O[C@H]1C[C@H](O[C@H]2[C@@H](O)C[C@H](O[C@H]3[C@@H](O)C[C@H](O[C@H]4CC[C@@]5(C)[C@H](CC[C@@H]6[C@@H]5CC[C@]5(O)[C@@H](C7=CC(=O)OC7)CC[C@]65O)C4)O[C@@H]3C)O[C@@H]2C)O[C@H](C)[C@H]1O[C@@H]1O[C@H](CO)[C@@H](O)[C@H](O)[C@H]1O,AC50,Paired box protein Pax-8,1.98 µM (active)
same,IC50,Vero [1],< 0.05 µM (active)
same,CC50,Vero [2],1.78 µM (active)
Cc1ccc(-c2csc(Nc3ccc(C(=O)O)cc3)[n+]2Cc2ccccc2)cc1,IC50,[3],16.5 µM (active)
same,IC50,[4],13 µM (active)
same,EC50,[5],> 53 µM (inactive)
COc1ccc(S(=O)(=O)N2CC[C@@H]3[C@H]2c2cc(C#Cc4ccccc4OC)ccc2N[C@@H]3CO)cc1,AC50,[6],11.3 µM (active)
same,AC50,[7],> 39 µM (inactive)
CCCN1C(=O)c2ccccc2NC1c1ccc(OC)c(CSc2ccccn2)c1 (configuration not stated),IC50,[3],> 20 µM (inactive)
same,IC50,[4],46.2 µM (active)
same,EC50,[5],> 53 µM (inactive)
Brc1cccc(CSc2nnc(-c3ccncc3)o2)c1,EC50,[8],41.1 µM (active)
same,AC50,HEK293,47 µM (active)
same,EC50,[9],> 38 µM (not active)
CC1(CCCc2ccc(N(CCCl)CCCl)cc2)NC(=O)NC1=O (configuration not stated),AC50,HEK293,4.51 µM (active)
C[C@@H]1CN([C@@H](C)CO)C(=O)Cc2cc(NC(=O)Nc3ccccc3)ccc2O[C@H]1CN(C)Cc1ccc2c(c1)OCO2,AC50,[6],3.97 µM (active)
same,AC50,[7],> 39 µM (inactive)
CCCc1nc2ccc(Br)cc2c(=O)n1-c1ccc([N+](=O)[O-])c(C(F)(F)F)c1,AC50,[10],15.7 µM (active)
same,AC50,[11],11.7 µM (active)
same,AC50,HEK293,29.2 µM (active)
same,AC50,[12],7.4 µM (active)
same,EC50,[13],2 µM (active)
same,EC50,[14],> 60 µM (not active)
COc1cccc(/C=C2\SC(=S)N(NS(=O)(=O)c3ccccc3)C2=O)c1OC,IC50,[4],22.3 µM (active)
same,EC50,[5],> 53 µM (inactive)
same,IC50,Genome polyprotein,41.1 µM (active)
same,IC50,[15],0.692 µM (active)
Cc1cc(C)cc(OC(C)C(=O)Nc2ccc(S(=O)(=O)Nc3cc(C)nc(C)n3)cc2)c1 (configuration not stated),IC50,[15],13.2 µM (active)
COc1ccc(C#Cc2ccc3c(c2)O[C@@H](CN(C)S(=O)(=O)c2ccccc2F)[C@@H](C)CN([C@H](C)CO)S3(=O)=O)cc1,AC50,[16],1.43 µM (active)
same,AC50,[17],1.07 µM (active)
same,AC50,[6],1.23 µM (active)
same,AC50,[18],1.16 µM (active)
